Patent publication US20260210939A1, “MODIFIED OLFACTORY RECEPTORS” (GIVAUDAN SA, priority 2022, published 2026)

Experiments:
Format in all cases: cell-based
[1] = molecular target: T1, OR10J5 (Homo sapiens, UniProt Q8NHC4); conditions: OR10J5 with SEQ ID NO: 86; relative to positive control 100 μM Mahonial
T1 construct: Improved functional expression of modified OR-genes containing the truncated, optimized C-terminus; expressed in transfected cells; host or cells: HEK293T stably expressing human RTP1S(V227I) and RTP2(L220R)
T1 sequence (Q8NHC4 with tags, fused parts or gaps): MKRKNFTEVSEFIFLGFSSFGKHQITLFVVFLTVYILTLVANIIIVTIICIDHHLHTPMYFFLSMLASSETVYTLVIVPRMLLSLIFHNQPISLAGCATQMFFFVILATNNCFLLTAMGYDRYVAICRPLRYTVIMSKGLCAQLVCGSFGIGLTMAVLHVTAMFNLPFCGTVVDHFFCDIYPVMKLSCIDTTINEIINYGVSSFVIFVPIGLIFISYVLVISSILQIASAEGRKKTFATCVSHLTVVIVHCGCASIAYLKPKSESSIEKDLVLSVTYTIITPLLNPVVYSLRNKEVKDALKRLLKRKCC
Protocol: Activation of OR10J5 with the C-terminal domain of SEQ ID NO: 86 by (S,E)-10-hydroxy-4,8-dimethyldec-4-enal or (R,E)-10-hydroxy-4,8-dimethyldec-4-enal was measured in a dose-response analysis.
Potency of the two tested OR10J5 ligands is expressed as the EC20% value, which is the concentration that leads to a 20% increase of the luciferase activity relative to the positive control (100 μM, Mahonial; (4E)-9-hydroxy-5,9-dimethyl-4-Decenal). […] Because of the difference in EC20%, a much lower concentration of the (S,E)-isomer is needed to activate the receptor compared to the concentration needed of the (R,E)-isomer. […] This example further illustrates the usefulness of the improved assay to determine the most odor-active isomers.

[2] = molecular target: T2, OR10J1(M51I, I92M) (Homo sapiens, UniProt P30954, I103M/M62I); test: Dose-response test of single lactones on OR10J1(M51I, I92M)
T2 construct: expressed in transfected cells; transient transfection of pcDNA3.1(+) OR plasmid
T2 sequence (P30954 with tags, fused parts or gaps M62I/I103M): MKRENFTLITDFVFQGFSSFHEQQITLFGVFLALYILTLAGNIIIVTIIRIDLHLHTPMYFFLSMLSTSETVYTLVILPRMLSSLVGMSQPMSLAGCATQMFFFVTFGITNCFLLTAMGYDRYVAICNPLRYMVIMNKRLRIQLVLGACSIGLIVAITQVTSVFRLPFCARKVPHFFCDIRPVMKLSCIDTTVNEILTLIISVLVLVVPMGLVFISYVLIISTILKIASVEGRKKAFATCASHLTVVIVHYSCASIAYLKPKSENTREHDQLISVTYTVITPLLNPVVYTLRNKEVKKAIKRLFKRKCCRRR
Protocol: (§1) In a subsequent de-convultion experiment, the single ingredients were tested in a dose-response test on all the identified OR. […] Thus, OR2AP1 and OR2J2 are particularly strongly activated by the long-chain dodecalactone gamma, while OR10A3 is very sensitive to several longer chain lactones. […] Among the five OR, OR10A3 is the most sensitive.

[3] = molecular target: T3, OR2J2 (Homo sapiens, UniProt O76002, A146V/A218T/A302I/G300K/H297E/H74Y); test: Dose-response test of single lactones on OR2J2
T3 construct: expressed in transfected cells; transient transfection of pcDNA3.1(+) OR plasmid
T3 sequence (O76002 with tags, fused parts or gaps H74Y/A146V/A218T/H297E/G300K/A302I limits assumed): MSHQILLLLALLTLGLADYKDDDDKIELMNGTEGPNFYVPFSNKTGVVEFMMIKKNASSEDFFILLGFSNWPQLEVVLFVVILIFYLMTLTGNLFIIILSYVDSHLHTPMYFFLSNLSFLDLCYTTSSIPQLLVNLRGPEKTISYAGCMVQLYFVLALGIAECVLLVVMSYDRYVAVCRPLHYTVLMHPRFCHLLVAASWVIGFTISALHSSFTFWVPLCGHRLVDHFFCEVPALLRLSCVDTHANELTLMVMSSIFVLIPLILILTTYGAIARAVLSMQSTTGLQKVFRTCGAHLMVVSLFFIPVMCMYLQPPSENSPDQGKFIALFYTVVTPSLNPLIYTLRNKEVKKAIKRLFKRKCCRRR
Protocol: as §1

[4] = molecular target: T4, OR10A3 (Homo sapiens, UniProt P58181); test: Dose-response test of single lactones on OR10A3 (luciferase)
T4 construct: Class II OR library members with modified C-terminal domains; expressed in transfected cells
T4 sequence (P58181 with tags, fused parts or gaps): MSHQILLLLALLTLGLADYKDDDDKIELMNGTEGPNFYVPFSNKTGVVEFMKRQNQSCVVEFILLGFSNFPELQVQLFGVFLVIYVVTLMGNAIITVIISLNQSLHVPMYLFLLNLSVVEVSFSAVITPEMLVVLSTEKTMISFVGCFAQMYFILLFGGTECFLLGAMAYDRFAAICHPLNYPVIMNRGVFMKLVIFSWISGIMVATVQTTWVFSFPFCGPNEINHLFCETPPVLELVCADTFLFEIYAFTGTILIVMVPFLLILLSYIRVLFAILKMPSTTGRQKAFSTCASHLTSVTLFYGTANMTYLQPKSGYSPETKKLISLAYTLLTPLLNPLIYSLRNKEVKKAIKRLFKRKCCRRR
Protocol: as §1

[5] = molecular target: T5, OR10A6(A117V, V140G, L287P) (Homo sapiens, UniProt Q8NH74, A117V/L287P/V140G); test: Dose-response test of single lactones on OR10A6(A117V, V140G, L287P)
T5 construct: expressed in transfected cells; transient transfection of pcDNA3.1(+) OR plasmid
T5 sequence (Q8NH74 with tags, fused parts or gaps A117V/V140G/L287P limits assumed): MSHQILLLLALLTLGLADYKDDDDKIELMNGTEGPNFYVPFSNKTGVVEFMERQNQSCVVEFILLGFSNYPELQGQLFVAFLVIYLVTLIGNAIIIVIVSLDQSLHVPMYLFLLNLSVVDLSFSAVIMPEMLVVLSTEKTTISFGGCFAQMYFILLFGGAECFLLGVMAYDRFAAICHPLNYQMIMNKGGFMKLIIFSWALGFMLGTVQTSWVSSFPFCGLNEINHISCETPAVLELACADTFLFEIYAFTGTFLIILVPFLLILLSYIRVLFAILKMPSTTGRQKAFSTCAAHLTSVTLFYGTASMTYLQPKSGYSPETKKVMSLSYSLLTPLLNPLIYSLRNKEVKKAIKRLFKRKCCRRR
Protocol: as §1

[6] = molecular target: T6, OR2AP1 (Homo sapiens, UniProt Q8NGE2); test: Dose-response test of single lactones on OR2AP1
T6 construct: expressed in transfected cells; transient transfection of pcDNA3.1(+) OR plasmid
T6 sequence (Q8NGE2 with tags, fused parts or gaps limits assumed): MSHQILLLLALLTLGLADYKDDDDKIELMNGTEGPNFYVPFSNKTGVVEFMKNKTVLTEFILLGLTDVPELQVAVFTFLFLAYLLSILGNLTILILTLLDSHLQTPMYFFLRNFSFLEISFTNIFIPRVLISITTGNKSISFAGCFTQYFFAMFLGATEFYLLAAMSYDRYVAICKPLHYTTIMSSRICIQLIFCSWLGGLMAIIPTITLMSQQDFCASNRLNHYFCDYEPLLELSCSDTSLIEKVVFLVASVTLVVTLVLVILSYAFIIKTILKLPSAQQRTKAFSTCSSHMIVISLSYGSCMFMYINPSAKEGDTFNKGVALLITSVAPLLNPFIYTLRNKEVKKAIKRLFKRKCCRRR
Protocol: as §1

[7] = molecular target: T7, OR56A4 (Homo sapiens, UniProt Q8NGH8, T299N); test: cell-based; conditions: for activation of the wild-type: wild-type OR56A4
T7 construct: Improved functional expression of modified OR-genes containing the truncated, optimized C-terminus; expressed in transfected cells; host or cells: HEK293T stably expressing human RTP1S(V227I) and RTP2(L220R)
T7 sequence (Q8NGH8 with tags, fused parts or gaps T299N): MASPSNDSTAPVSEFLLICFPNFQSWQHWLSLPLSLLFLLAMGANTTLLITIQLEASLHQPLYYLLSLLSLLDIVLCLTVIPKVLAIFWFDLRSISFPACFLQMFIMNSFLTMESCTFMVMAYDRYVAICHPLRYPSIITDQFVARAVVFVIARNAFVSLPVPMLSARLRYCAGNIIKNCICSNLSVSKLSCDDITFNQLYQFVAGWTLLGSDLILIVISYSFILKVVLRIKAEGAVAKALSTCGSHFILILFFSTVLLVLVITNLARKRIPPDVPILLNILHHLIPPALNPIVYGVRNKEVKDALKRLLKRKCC
Protocol: Activation of OR56A4 by acids of different chain length was further tested. […] Replacing the wild-type with the C-terminal sequence of the functional OR51E1 did reduce activity. However, using the optimized sequence form Examples 1-5 led to a strong signal and much lower detection threshold upon addition of all three acids.
These two improvements were further combined and the combination was tested on OR52A5 and two further class I receptors. […] In the case of OR52A4, 4-ethyloctanoic acid, which is detected at low concentrations by the human nose, is detected with a high luciferase response already at 0.19 μM by the receptor with the C-terminal modification showing very sensitive detection of this carboxylic acid by the modified class I receptor.

[8] = system: library of all human class I OR; test: Screening of the library of all class I OR (n=77, C-terminal domain SEQ ID NO: 741) with carboxylic acids, luciferase induction; conditions: full library of class I OR
Protocol: All human class I OR and all key genetic variants of these OR were synthesized with a sequence coding for the identical C-terminal domain […] (SEQ ID NO: 741) in the vector pcDNA3.1(+) to generate a library of all class I OR with an improved C-terminal domain.
Parallel transfection experiments were conducted with all these plasmids (n=77, SEQ ID NO: 760, OR51F1 was excluded due to poor plasmid yield) and cells expressing the different OR were stimulated with one given ligand at a time. In total 10 different carboxylic acids ligands were tested on the full library of class I receptors.

[9] = molecular target: T1, OR10J5; conditions: changed C-term. vs wild-type
[10] = molecular target: T8, OR4S2 (Homo sapiens, UniProt Q8NH73, A290K); test: cell-based
T8 construct: Improved functional expression of modified OR-genes containing the truncated, optimized C-terminus; expressed in transfected cells; host or cells: HEK293T stably expressing human RTP1S(V227I) and RTP2(L220R)
T8 sequence (Q8NH73 with tags, fused parts or gaps A290K): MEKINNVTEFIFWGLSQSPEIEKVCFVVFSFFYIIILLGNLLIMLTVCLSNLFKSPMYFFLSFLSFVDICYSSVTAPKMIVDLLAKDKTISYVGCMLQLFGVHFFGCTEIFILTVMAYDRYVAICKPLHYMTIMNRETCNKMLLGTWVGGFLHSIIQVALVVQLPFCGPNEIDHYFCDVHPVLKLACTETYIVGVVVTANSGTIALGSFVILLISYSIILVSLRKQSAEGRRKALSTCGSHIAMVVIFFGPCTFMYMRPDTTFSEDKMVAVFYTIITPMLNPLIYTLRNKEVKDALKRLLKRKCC

C/C(=C\CC[C@H](C)CCO)CCC=O [(S,E)-10-hydroxy-4,8-dimethyldec-4-enal]
EC20% [1]: 10.1 µM

CCCCCCCC1CCCC(=O)O1 (centres unmarked) [Dodecalactone delta]
EC2 (concentration for 2-fold luciferase induction) [2]: 31.38 µM | EC2 (concentration for 2-fold luciferase induction) [3]: 35.12 µM | EC10, concentration for 10-fold OR activation [4]: 2.59 μM | EC2 (concentration for 2-fold luciferase induction) [5]: 1.11 µM | EC2 (concentration for 2-fold luciferase induction) [6]: 15.76 µM

CCCCCCCCCCC(=O)O [Undecanoic acid]
Fold-improvement potency ([7]; changed C-term. vs wild-type): 5.1 | EC50 ([7]; wild-type): 114 µM | activation of the wild-type [7]: activated at high concentration

CC1=CCC(C(C)CC2CCCC2=O)CC1 (centres unmarked) [Nectaryl]
EC2 (concentration for 2-fold luciferase induction) [3]: inactive | EC10, concentration for 10-fold OR activation [4]: 2.32 μM | EC2 (concentration for 2-fold luciferase induction) [5]: 1.12 µM | EC2 (concentration for 2-fold luciferase induction) [6]: 19.72 µM

CCCCCCCC1CCC(=O)O1 (centres unmarked) [Undecalactone gamma]
EC2 (concentration for 2-fold luciferase induction) [2]: 2.11 µM | EC2 (concentration for 2-fold luciferase induction) [3]: 0.71 µM | EC10, concentration for 10-fold OR activation [4]: 0.28 μM | EC2 (concentration for 2-fold luciferase induction) [5]: 0.34 µM | EC2 (concentration for 2-fold luciferase induction) [6]: 6.53 µM

CCCCCCCCCC(=O)O [decanoic acid]
activation of the wild-type [7]: activated at high concentration

CCC=C(C)C(=O)O [2-Methyl-2-pentenoic acid]
Activated OR and OR variants [8]: No activation observed

C/C(=C\CC[C@@H](C)CCO)CCC=O [(R,E)-10-hydroxy-4,8-dimethyldec-4-enal]
EC20% [1]: 24.4 µM

C/C(=C\CCC=O)CCCC(C)(C)O [Mahonial, (4E)-9-hydroxy-5,9-dimethyl-4-Decenal]
Fold-improvement potency [9]: 2.3

CC(C)CC(=O)O [3-Methylbutanoic acid]
Activated OR and OR variants [8]: No activation observed

CCCCCCC1CCC(=O)O1 (centres unmarked) [Decalactone gamma]
EC2 (concentration for 2-fold luciferase induction) [2]: 3.63 µM | EC2 (concentration for 2-fold luciferase induction) [3]: 3.27 µM | EC10, concentration for 10-fold OR activation [4]: 0.84 μM | EC2 (concentration for 2-fold luciferase induction) [5]: 1.62 µM | EC2 (concentration for 2-fold luciferase induction) [6]: 33.66 µM

CCCC(C)=CC(=O)O [3-Methyl-2-hexenoic acid]
Activated OR and OR variants [8]: strong induction of the OR51B2(C120R, L134F, C209S) variant but not of the wild-type variant of OR51B2

CCCCCCCCC1CCC(=O)O1 (centres unmarked) [Dodecalactone gamma]
EC2 (concentration for 2-fold luciferase induction) [2]: 5.31 µM | EC2 (concentration for 2-fold luciferase induction) [3]: 1.41 µM | EC10, concentration for 10-fold OR activation [4]: 0.85 μM | EC2 (concentration for 2-fold luciferase induction) [5]: 0.48 µM | EC2 (concentration for 2-fold luciferase induction) [6]: 1.31 µM

c1ccc2scnc2c1 [Benzothiazole]
Comments on efficacy [10]: 2-fold lower | Fold-improvement potency ([10]; changed C-term. vs wild-type): 1.3 | Fold-improvement threshold ([10]; changed C-term. vs wild-type): 2.4 | EC50 ([10]; wild-type): 137 µM
